Laboratory results: patent US11166893B2, “Topical hirsutism treatment” (BMG PHARMA SRL, priority 2015, dated 2021)

Test system: growth of superfluous hair
Assay: Inhibition of superfluous hair growth evaluated by the Trichoscan method
Type: in vivo
Conditions: 10% capryloyl glycine cream, topical, compared with eflornithine efficacy reported in Eur. J Dermatol 2008, 18 (1): 65-70
Description: The ability of capryloyl glycine to inhibit the growth of superfluous hair was evaluated by the Trichoscan® method (http://trichoscan.com/pages/english/professional-info/reference-values.php).

Structure (SMILES): CCCCCCCC(=O)NCC(=O)O [capryloyl glycine]
- ability to inhibit the growth of superfluous hair (efficacy): efficacy comparable to that of eflornithine
